Assay results published in ChEMBL document CHEMBL1201862, “PubChem BioAssay data set” (2004).
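96-well plates; 48 h exposure; 5 concentrations. Endpoints by linear interpolation between flanking doses. Not reached: highest tested concentration assigned. Here, GI50 denotes the concentration required for 50% inhibition of growth.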 Calls of active or inactive are those of the source. Cut-off read from the data, not from the text of the source: active = GI50 up to about 1.1 µM and inactive = higher.

Legend:
Assay in all cases: inhibition of tumour cell growth, NCI panel, 48 h
[1] = test system: HCC 2998
[2] = test system: MDA-MB-435
[3] = test system: BT-549
[4] = test system: K562
[5] = test system: EKVX
[6] = test system: Hs-578T
[7] = test system: OVCAR-4
[8] = test system: SNB-19
[9] = test system: RPMI-8226
[10] = test system: HOP-92
[11] = test system: COLO 205
[12] = test system: M14
[13] = test system: SW-620
[14] = test system: HOP-62
[15] = test system: MOLT-4
[16] = test system: MDA-N
[17] = test system: DU-145
[18] = test system: NCI-H460
[19] = test system: UACC-257
[20] = test system: NCI-H522
[21] = test system: SK-MEL-5
[22] = test system: NCI/ADR-RES
[23] = test system: MDA-MB-231
[24] = test system: UO-31
[25] = test system: SK-MEL-2
[26] = test system: SN12C
[27] = test system: CAKI-1
[28] = test system: SF-539
[29] = test system: SF-295
[30] = test system: MCF7
[31] = test system: PC-3
[32] = test system: UACC-62
[33] = test system: OVCAR-3
[34] = test system: OVCAR-5
[35] = test system: SK-OV-3
[36] = test system: A549
[37] = test system: 786-0
[38] = test system: SK-MEL-28
[39] = test system: SNB-75
[40] = test system: ACHN
[41] = test system: NCI-H23
[42] = test system: CCRF-CEM
[43] = test system: HCT-15
[44] = test system: U-251
[45] = test system: SF-268
[46] = test system: IGROV-1
[47] = test system: HCT-116
[48] = test system: RXF 393
[49] = test system: HT-29
[50] = test system: OVCAR-8
[51] = test system: SR
[52] = test system: KM12
[53] = test system: LOX IMVI
[54] = test system: NCI-H226
[55] = test system: A498
[56] = test system: TK-10
[57] = test system: Malme-3M
[58] = test system: T47D

CCOC(=O)CNC(=O)C(CSCc1ccc(Br)cc1)NC(=O)CCC(N)C(=O)OCC (centres undefined)
GI50 [1]: > 50 µM (inactive)
GI50 [2]: > 50 µM (inactive)
GI50 [3]: > 50 µM (inactive)
GI50 [4]: > 50 µM (inactive)
GI50 [5]: > 50 µM (inactive)
GI50 [6]: > 50 µM (inactive)
GI50 [7]: > 50 µM (inactive)
GI50 [8]: > 50 µM (inactive)
GI50 [9]: > 50 µM (inactive)
GI50 [10]: > 50 µM (inactive)
GI50 [11]: > 50 µM (inactive)
GI50 [12]: > 50 µM (inactive)
GI50 [13]: > 50 µM (inactive)
GI50 [14]: > 50 µM (inactive)
GI50 [15]: > 50 µM (inactive)
GI50 [16]: > 50 µM (inactive)
GI50 [17]: > 50 µM (inactive)
GI50 [18]: > 50 µM (inactive)
GI50 [19]: > 50 µM (inactive)
GI50 [20]: > 50 µM (inactive)
GI50 [21]: > 50 µM (inactive)
GI50 [22]: > 50 µM (inactive)
GI50 [23]: > 50 µM (inactive)
GI50 [24]: > 50 µM (inactive)
GI50 [25]: > 50 µM (inactive)
GI50 [26]: > 50 µM (inactive)
GI50 [27]: > 50 µM (inactive)
GI50 [28]: > 50 µM (inactive)
GI50 [29]: > 50 µM (inactive)
GI50 [30]: > 50 µM (inactive)
GI50 [31]: > 50 µM (inactive)
GI50 [32]: > 50 µM (inactive)
GI50 [33]: > 50 µM (inactive)
GI50 [34]: > 50 µM (inactive)
GI50 [35]: > 50 µM (inactive)
GI50 [36]: > 50 µM (inactive)
GI50 [37]: > 50 µM (inactive)
GI50 [38]: > 50 µM (inactive)
GI50 [39]: > 50 µM (inactive)
GI50 [40]: > 50 µM (inactive)
GI50 [41]: > 50 µM (inactive)
GI50 [42]: > 50 µM (inactive)
GI50 [43]: > 50 µM
GI50 [44]: > 50 µM (inactive)
GI50 [45]: > 50 µM (inactive)
GI50 [46]: > 50 µM (inactive)
GI50 [47]: > 50 µM (inactive)
GI50 [48]: > 50 µM (inactive)
GI50 [49]: > 50 µM (inactive)
GI50 [50]: > 50 µM (inactive)
GI50 [51]: > 50 µM (inactive)
GI50 [52]: 40.6 µM (inactive)

CN1C(=O)[C@@H]2[C@@H]3c4ccccc4N(S(=O)(=O)C(F)(F)F)[C@@H]3c3[nH]c4ccccc4c3[C@@H]2C1=O
GI50 [1]: > 100 µM (inactive)
GI50 [2]: > 100 µM (inactive)
GI50 [3]: > 100 µM (inactive)
GI50 [4]: 7.28 µM (inactive)
GI50 [5]: 5.74 µM (inactive)
GI50 [6]: 19.7 µM (inactive)
GI50 [53]: > 100 µM (inactive)
GI50 [7]: 82.4 µM (inactive)
GI50 [8]: > 100 µM (inactive)
GI50 [9]: 8.39 µM (inactive)
GI50 [10]: 1.63 µM (inactive)
GI50 [11]: 7.91 µM (inactive)
GI50 [13]: > 100 µM (inactive)
GI50 [14]: > 100 µM (inactive)
GI50 [15]: 4.3 µM (inactive)
GI50 [16]: > 100 µM (inactive)
GI50 [17]: 98.2 µM (inactive)
GI50 [18]: 21.5 µM (inactive)
GI50 [54]: 5.52 µM (inactive)
GI50 [19]: 62.5 µM (inactive)
GI50 [21]: 36.4 µM (inactive)
GI50 [22]: 26.3 µM (inactive)
GI50 [23]: 13.2 µM (inactive)
GI50 [24]: 14.1 µM (inactive)
GI50 [25]: 81.5 µM (inactive)
GI50 [26]: > 100 µM (inactive)
GI50 [27]: > 100 µM (inactive)
GI50 [28]: > 100 µM (inactive)
GI50 [55]: > 100 µM (inactive)
GI50 [29]: 50.7 µM (inactive)
GI50 [30]: 11.6 µM (inactive)
GI50 [31]: 8.47 µM (inactive)
GI50 [32]: > 100 µM (inactive)
GI50 [33]: 22.6 µM (inactive)
GI50 [34]: > 100 µM (inactive)
GI50 [35]: > 100 µM (inactive)
GI50 [36]: 11.2 µM (inactive)
GI50 [37]: 63.7 µM (inactive)
GI50 [38]: > 100 µM (inactive)
GI50 [39]: 13.2 µM (inactive)
GI50 [40]: 25.1 µM (inactive)
GI50 [41]: 54.1 µM (inactive)
GI50 [42]: 25.2 µM (inactive)
GI50 [43]: 16.9 µM
GI50 [44]: 31.3 µM (inactive)
GI50 [45]: > 100 µM (inactive)
GI50 [46]: 0.175 µM (active)
GI50 [47]: 17.2 µM (inactive)
GI50 [56]: 47.8 µM (inactive)
GI50 [48]: 10.3 µM (inactive)
GI50 [49]: 7.67 µM (inactive)
GI50 [50]: 83 µM (inactive)
GI50 [51]: 4.9 µM (inactive)

Oc1c(N2CCOCC2)cc(-c2cc(N3CCOCC3)c(O)c3ccccc23)c2ccccc12
GI50 [1]: 2.04 µM (inactive)
GI50 [57]: 0.486 µM (active)
GI50 [2]: 1.38 µM (inactive)
GI50 [58]: 12.8 µM (inactive)
GI50 [3]: 1.77 µM (inactive)
GI50 [4]: 1.88 µM (inactive)
GI50 [5]: 11.7 µM (inactive)
GI50 [6]: 3.44 µM (inactive)
GI50 [53]: 1.77 µM (inactive)
GI50 [7]: 1.93 µM (inactive)
GI50 [8]: 3.61 µM (inactive)
GI50 [11]: 1.93 µM (inactive)
GI50 [12]: 1.56 µM (inactive)
GI50 [13]: 2.04 µM (inactive)
GI50 [14]: 1.69 µM (inactive)
GI50 [15]: 1.71 µM (inactive)
GI50 [16]: 0.389 µM (active)
GI50 [18]: 2.83 µM (inactive)
GI50 [54]: 10.1 µM (inactive)
GI50 [19]: 2.29 µM (inactive)
GI50 [20]: 2.23 µM (inactive)
GI50 [21]: 0.422 µM (active)
GI50 [22]: 3.13 µM (inactive)
GI50 [23]: 1.24 µM (inactive)
GI50 [24]: 1.73 µM (inactive)
GI50 [25]: 2.65 µM (inactive)
GI50 [26]: 1.58 µM (inactive)
GI50 [27]: 2.69 µM (inactive)
GI50 [28]: 2.09 µM (inactive)
GI50 [29]: 1.71 µM (inactive)
GI50 [30]: 2.12 µM (inactive)
GI50 [31]: 2.64 µM (inactive)
GI50 [32]: 2.13 µM (inactive)
GI50 [33]: 2.47 µM (inactive)
GI50 [34]: 2.86 µM (inactive)
GI50 [35]: 6.47 µM (inactive)
GI50 [36]: 2.26 µM (inactive)
GI50 [37]: 1.63 µM (inactive)
GI50 [38]: 1.75 µM (inactive)
GI50 [39]: 2.26 µM (inactive)
GI50 [40]: 2.93 µM (inactive)
GI50 [41]: 2.28 µM (inactive)
GI50 [42]: 1.48 µM (inactive)
GI50 [43]: 2.31 µM
GI50 [44]: 1.82 µM (inactive)
GI50 [45]: 3.33 µM (inactive)
GI50 [46]: 2.4 µM (inactive)
GI50 [47]: 2.16 µM (inactive)
GI50 [56]: 12.9 µM (inactive)
GI50 [48]: 1.56 µM (inactive)
GI50 [49]: 2.16 µM (inactive)
GI50 [50]: 1.6 µM (inactive)
GI50 [51]: 0.659 µM (active)
GI50 [52]: 6.05 µM (inactive)
